Measured values taken from US7223758B2, “Pyridazine derivative, pharmaceutical composition thereof, its pharmaceutical use, and process for its preparation” (Sanofi-Aventis, priority 2002, dated 2007).

Biological target: T1, cathepsin K (Homo sapiens, UniProt P43235)
T1 sequence (P43235 115-329): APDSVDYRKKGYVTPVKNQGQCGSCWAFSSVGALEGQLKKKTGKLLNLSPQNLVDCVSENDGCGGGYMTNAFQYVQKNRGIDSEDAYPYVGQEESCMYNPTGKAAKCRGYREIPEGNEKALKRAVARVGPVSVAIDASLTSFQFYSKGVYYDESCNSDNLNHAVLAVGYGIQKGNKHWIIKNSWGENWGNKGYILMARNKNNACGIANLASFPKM
Test: Study of the inhibition of cathepsin K (fluorogenic substrate Z-Val-Arg-AMC)
Assay type: biochemical
Conditions: cathepsin K 5 ng/ml, substrate Z-Val-Arg-AMC 20 μM, pH 5.5, two hours at room temperature; concentration range from 50 to 0.5 μM
Procedure: Pharmacological study of the products of the invention Study of the inhibition of cathepsin K
The test products (10 mM) are diluted to 1 mM in DMSO and distributed in polystyrene Nunc 96-well plates at a rate of 2 μl per well. Column 12 of the plate is reserved for the controls and thus receives […] of DMSO (without products) per well. The plates are stored at −80° C. and thawed on the day of the experiment.
The products are diluted to 50 μM by addition of 38 μl of reaction buffer: 100 mM sodium acetate, 5 mM EDTA, 1 mM DTT, pH 5.5. The addition and all the pipetting are performed with a 96-tip CybiWell pipette. After mixing the solutions, each product is transferred into 2 wells (duplicates) of a black Greiner 384-well plate at a rate of 10 μl per well. Two 96-well plates can thus be tested in one 384-well plate.
A solution of substrate, Z-Val-Arg-AMC (Calbiochem), at a concentration of 50 μm is prepared in the reaction buffer. The substrate is the distributed among all the wells of the 384-well plate (20 μl per well).
A solution of cathepsin K at a concentration of 12.5 ng/ml is prepared in the reaction buffer and distributed among all the wells of the 384-well plate (20 μl per well) except for the 16 wells serving as 100% inhibition controls (columns 23 and 24, lines I to P), which receive 20 μl of enzyme-free buffer. […] are performed in columns 23 and 24, lines A to H, which contain no products.
The plates are then incubated for two hours at room temperature, and then read on a Fluoroskan (Labsystems): excitation 390 nm; emission 460 nm.
The final concentrations of each of the reagents are: Products 10 μM, Substrate 20 μM, enzyme 5 ng/ml.
The percentages of inhibition for each of the products are calculated by using the points at 0 and 100% inhibition of each plate as references. The products showing significant inhibition are then retested over a concentration range from 50 to 0.5 μM to determine an IC50.

Molecule	IC50
N#CC(OC(=O)[C@@H]1CCCN(C(=O)OCc2ccccc2)N1C(=O)CCNC(=O)Cc1ccccc1)c1cccc(Oc2ccc(Br)cc2)c1 (stereo partly drawn) [Example 9, 1-(phenylmethyl)-3-[cyano-3-[(4-bromophenoxy)phenyl]-methyl] (3S)2-[1-oxo-3-[(phenylacetyl)amino]propyl]-tetrahydro-1,3(2H)-pyridazinedicarboxylate]	1000 to 10000 nM
N#CC(NC(=O)[C@@H]1CCCN(C(=O)OCc2ccccc2)N1C(=O)CCNC(=O)Cc1ccccc1)c1cccc(Oc2ccccc2)c1 (stereo partly drawn) [Example 4, (phenylmethyl) (3S)-2-[1-oxo-3-[(phenylacetyl)amino]propyl]-3-[[[cyano(3-phenoxy-phenyl)methyl]amino]carbonyl]tetrahydro-1(2H)pyridazine-carboxylate]	1000 to 10000 nM
N#CNC(=O)[C@@H]1CCCNN1C(=O)CCNC(=O)Cc1ccccc1 [Example 13, (3S)-N-cyano-2-[1-oxo-3-[(phenylacetyl)amino]propyl]hexahydro-3-pyridazinecarb-oxamide]	1000 to 10000 nM
N#CC(NC(=O)[C@@H]1CCCNN1C(=O)CCNC(=O)Cc1ccccc1)c1cccc(Oc2ccccc2)c1 (mixture of isomers) [Example 5, (3S)-2-[3-[(phenylacetyl)amino]-1-oxopropyl]-N-[cyano-(3-phenoxyphenyl)methyl]hexahydro-3-pyridazine-carboxamide]	< 1000 nM
N#CC(OC(=O)[C@@H]1CCCN(C(=O)OCc2ccccc2)N1C(=O)CCNC(=O)Cc1ccccc1)c1cccc(Oc2ccccc2)c1 (mixture of isomers) [Example 7, 1-(phenylmethyl)-3-[(R)-cyano(3-phenoxyphenyl)methyl](3S)-2-[1-oxo-3-[(phenylacetyl)amino]propyl]tetrahydro-1,3(2H)-pyridazinedicarboxylate]	1000 to 10000 nM
N#CC(NC(=O)[C@@H]1CCCNN1C(=O)CCc1ccccc1)c1cccc(Oc2ccccc2)c1 (stereo partly drawn) [Example 15, (3S)-N-[cyano(3-phenoxyphenyl)methyl]-2-(1-oxo-3-phenylpropyl)hexa-hydro-3-pyridazinecarboxamide]	< 1000 nM
N#CC(NC(=O)[C@@H]1CCCNN1C(=O)CCNC(=O)Cc1ccccc1)c1ccccc1 (stereo partly drawn) [Example 11, (3S)-N-(cyanophenyl-methyl)-2-[1-oxo-3-[(phenylacetyl)amino]propyl]hexa-hydro-3-pyridazinecarboxamide]	1000 to 10000 nM
(phenylmethyl) (3S)-3-[[[cyano(3-phenoxyphenyl)methyl]amino]carbonyl]-2-[3-phenyl-1-oxopropyl]tetrahydro-1(2H)-pyridazine-carboxylate [Example 14]	1000 to 10000 nM
N#CC(OC(=O)[C@@H]1CCCNN1C(=O)CCNC(=O)Cc1ccccc1)c1cccc(Oc2ccccc2)c1 (mixture of isomers) [Example 8, 3-[cyano(3-phenoxyphenyl)methyl] (3S)-2-[1-oxo-3-[(phenylacetyl)-amino]propyl]tetrahydro-1,3-(2H)-pyridazinecarboxylate]	1000 to 10000 nM
N#CCNC(=O)[C@@H]1CCCN(C(=O)OCc2ccccc2)N1C(=O)CCNC(=O)Cc1ccccc1 [Example 12]	1000 to 10000 nM
N#CC(NC(=O)[C@@H]1CCCN(C(=O)OCc2ccccc2)N1C(=O)CCNC(=O)Cc1ccccc1)c1ccccc1 (stereo partly drawn) [Example 10, (phenylmethyl) (3S)-3-[[(cyanophenylmethyl)amino]carbonyl]-2-[1-oxo-3-[(phenylacetyl)amino]propyl]tetrahydro-1(2H)-pyridazinecarboxylate]	1000 to 10000 nM
